Measurements reported in US12448364B2, “2, 4-diaminopyrimidine derivative and application thereof” (Shanghai Zheye Biotechnology Co., Ltd., priority 2018, dated 2025).
Read-outs that look alike come from different tables or passages of the source.

Tests used:
[1] = biological target: ALK2 kinase (Homo sapiens (Human), UniProt Q04771); test: Inhibitory activity test of the compounds on ALK2 (Promega ALK2 Kinase Enzyme System, ADP-Glo); type: biochemical; conditions: ADP-Glo chemiluminescence, 65 μM ATP substrate mix; read-out: IC50 (nM) values of the inhibitory activities on ALK2
Chain of ALK2 kinase (Q04771 21-509): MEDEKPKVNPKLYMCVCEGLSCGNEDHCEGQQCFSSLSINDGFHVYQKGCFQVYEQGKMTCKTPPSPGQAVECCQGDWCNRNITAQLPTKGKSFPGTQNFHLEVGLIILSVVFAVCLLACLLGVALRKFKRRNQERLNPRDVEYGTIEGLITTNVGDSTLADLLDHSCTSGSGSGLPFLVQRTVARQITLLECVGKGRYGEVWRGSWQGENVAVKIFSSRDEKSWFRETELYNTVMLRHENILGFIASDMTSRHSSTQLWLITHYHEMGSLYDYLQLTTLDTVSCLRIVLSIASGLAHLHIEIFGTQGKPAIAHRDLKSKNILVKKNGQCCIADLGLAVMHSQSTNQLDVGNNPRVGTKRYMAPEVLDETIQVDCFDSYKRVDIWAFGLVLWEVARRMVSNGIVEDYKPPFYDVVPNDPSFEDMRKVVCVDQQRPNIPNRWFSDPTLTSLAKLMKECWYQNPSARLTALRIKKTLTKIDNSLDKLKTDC
Protocol: 1. Inhibitory Activity Test of the Compounds on ALK2
ALK2 Kinase Enzyme System kit from Promega was used for the test. Reagents for kinase test was prepared first, the reagents comprising: (1)4×Kinase buffer 250 μL (containing 200 μM DTT); (2)5×Inhibitor mother liquor, i.e., the test compound was prepared into 10 mM mother liquor with DMSO, and the test compound was diluted into 5 mM (20 μL of 10 mM test compound mother liquor+20 μL of DMSO dissolved) with DMSO; (3)1×Kinase buffer (containing 1% DMSO) 200 μL; (4)1×Kinase buffer 40 μL; @Kinase solution 115 μL; (6)Substrate Mix (containing 65 μM ATP) 120 μL. The inhibitor working solution was then prepared, i.e., the test compound was prepared into 5 mM mother liquor with DMSO, 1 μL of 5 mM mother liquor was taken and was diluted into the concentration of 50000 nM by adding 99 μL 1×Kinase buffer; 20 μL of the solution of this concentration was taken, and 80 μL of 1×Kinase buffer (containing 1% DMSO) was added thereto to obtain the concentration of 10000 nM, 5 times dilution was carried out in this way, and a total of 6 concentration gradients were provided. 1 μL of the compound at each concentration was taken and added to a 384-well plate, and then 2 μL Kinase solution (160 mM Tris, 7.5; 80 mM MgCl2; 0.4 mg/ml BSA; 200 μM DTT; ALK2 kinase) was added to each well, and the plate was centrifuged at 1000 rpm for 20 seconds at room temperature, incubated for 30 minutes at 25° C.; then 2 μL of a mixture containing ATP and kinase substrate was added to each well, the plate was centrifuged at 1000 rpm for 20 seconds at room temperature, and incubated at 25° C. for 120 minutes. Then 5 μL of ADP-Glo™ reagent was added to each well, and the plate was incubated at 25° C. for 40 minutes; then 10 μL of Kinase Detection Reagent was added to each well, the plate was incubated at 25° C. for 30 minutes and then was tested; a microplate reader was used to record the chemiluminescence value, the curve was fitted with Origin 7.5, the IC50 (nM) value of the test substance on the ALK2 kinase activity was calculated.

[2] = system: hepcidin in HepG2 cells; test: Inhibition test of compounds on hepcidin expression in HepG2 cells (hepcidin ELISA); type: cell-based, human; conditions: 48 hours incubation, hepcidin protein in supernatant by ELISA, read-out: IC50 (nM) values of the inhibitory activities on hepcidin in HepG2 cells
Protocol: 2. Inhibition Test of Compounds on Hepcidin Expression in HepG2 Cells
HepG2 cells (ATCC HB-8065) in the exponential growth phase were digested with trypsin-EDTA, inoculated into 96-well plates at 5000 cells/well, and cultured in MEM (10% FBS) medium at 37° C. under 5% CO2 conditions for 24 hours, the test compound dissolved in DMSO and diluted in the medium and at a gradient concentration was added to each culture well. The preparation method of the test compound is: a compound mother liquor at a concentration of 10 mM was prepared, and then the compound was diluted in a gradient. The highest concentration of the compound for test was 10 μM, and a total of 8 gradients were obtained by 5-fold dilution. The diluted compound was added to a 96-well plate covered with cells, 50 μL per well. After the compound was added, the plate was placed in an incubator stored at 37° C. and 5% CO2, and incubated for another 48 hours. After the incubation was completed, the 96-well plate was centrifuged at 1000 rpm for 5 minutes at room temperature, the supernatant was taken, ELISA sample loading and detecting were completed within 30 minutes. Hepcidin ELISA kit (Human Hepcidin Quantikine ELISA Kit, R&D systems, Cat #DHP250) was used to quantitatively detect hepcidin protein. […] After washing and color development, the absorbance value was determined with a microplate reader at 450 nm, and the concentration of hepcidin protein in the test sample was calculated according to the quasi-curve of human hepcidin protein determination, and the curve was fitted with Origin 7.5 software, the IC50 (nM) value on the inhibition of producing hepcidin preotein of HepG2 cells by the test compound was calculated.

| Compound | IC50 [1] [nM] | IC50 ([2]; Homo sapiens) [nM] | IC50 [2] [nM] |
| --- | --- | --- | --- |
| COc1cc(Nc2nccc(Nc3cccnc3-c3ccccn3)n2)ccc1C1CCOCC1 [Compound 1, N^4-(2,2′-bipyridin-3-yl)-N^2-(3-methoxy-4-(tetrahydro-2H-pyran-4-yl)phenyl)pyrimidine-2,4-diamine] | 150 to 500 | – | – |
| COc1cc(Nc2nccc(Nc3cccnc3-c3ccccn3)n2)ccc1C1CCN(C)CC1 [Compound 2, N^4-(2,2′-bipyridin-3-yl)-N^2-3-(methoxy-4-(1-methylpiperidin-4-yl)phenyl)pyrimidine-2,4-diamine] | ≤ 150 | 14 | – |
| COc1cc(Nc2ncc(OC)c(Nc3cccnc3-c3ccccn3)n2)ccc1C1CCOCC1 [Compound 4, N^4-(2,2′-bipyridin-3-yl)-5-methoxy-N^2-(3-methoxy-4-(tetrahydro-2H-pyran-4-yl)phenyl)pyrimidine-2,4-diamine] | 150 to 500 | – | – |
| COc1cc(Nc2nccc(Nc3ccc(C)nc3-c3ccccn3)n2)ccc1C1CCN(C)CC1 [Compound 5, N^2-(3-methoxy-4-(1-methylpiperidin-4-yl)phenyl)-N^4-(6-methyl-2,2′-bipyridin-3-yl)pyrimidine-2,4-diamine] | ≤ 150 | 30 | – |
| COc1cc(Nc2nccc(Nc3cccnc3-c3ccccn3)n2)cc(OC)c1OC [Compound I*, reference compound] | ≥ 500 | – | 532 |
